Assays:
[1] = system: murine peripheral macrophages; assay: Phagocytosis by murine peripheral macrophages (FIG. 3); format: cell-based; conditions: for phagocytosis performance of macrophages: over 24 hours
Description: (§1) Fresh PMN were isolated from peripheral blood and aged to apoptosis in Teflon wells over 24 hrs in Iscoves/10% autologous serum. Mφ were treated with glucocorticoids as described in the figures. Mφ and aPMN were washed with 1×PBS and interacted in serum free Iscoves for 30 mins at 37° C. The cell layer was gently washed to remove […] cells, fixed in 1×Formalin and stained with PMN selective myeloperoxidase.

[2] = target: T1, 11β-HSD1 (Mus musculus, UniProt P50172); assay: Conversion of 3H-11-dehydrocorticosterone to corticosterone in macrophage cultures (FIG. 2b, 2c); format: cell-based
T1 construct: endogenous in cells; host or cells: mouse macrophages (probably thioglycollate-elicited peritoneal macrophages from C57Bl/6 mice)
Source text: (§2) Samples were taken at different times and ^3H-cort and ^3H-11-DHC were separated from media samples by thin layer chromatography and analysed by phosphorimaging.

[3] = system: murine BMD Mφ; assay: Phagocytosis of apoptotic PMN by BMD Mφ from control and 11β-HSD-/- mice (FIG. 4); format: cell-based; conditions: for enhanced phagocytic effect in 11βHSD-1-/- Mφ: 11βHSD-1-/- macrophages versus control; for phagocytosis of apoptotic PMN by BMD Mφ: 48 hrs treatment, n=4/group
Description: Bone Marrow Derived Macrophages (BMD Mφ)—bone marrow was extracted from femurs (C57BI/6 mice) and cultured @4×10^5 cells/ml in DMEM/10% FCS/10% L929 cell line supernatant for 8 days.
as §1
Transgenic 11β-HSD^−/− mice have been described previously (Kotelevstev et al., PNAS (USA) 94:14924-14929). Macrophages are isolated from control and 11β-HSD^−/− mice and assayed in a PMN phagocytosis assay as described above.

[4] = system: blood glucose levels; conditions: oral administration, two mouse models of diabetes; cited from earlier work
[5] = system: 11β-HSD-1; assay: 11β-reductase activity in human monocytes differentiating into macrophages, incubated with IL-4 (FIG. 8); format: cell-based; conditions: range of doses of IL-4, human monocytes at initiation of differentiation
Source text: Human Monocytes—monocytes isolated from peripheral blood by dextran sedimentation and percoll gradient methods. Monocytes were differentiated to Mφ @4×10^6 cells/ml over 4 days in Iscoves/10% autologous serum.
as §2
The manner in which differentiating macrophages acquire 11β-HSD-1 activity can be influenced by cytokines. In the experiment shown in FIG. 8, human monocytes at the initiation of differentiation into macrophages were incubated with a range of doses of IL-4. 11β-reductase activity was measured by incubation with tritiated 11-DHC.

T1 sequence (P50172 whole entry): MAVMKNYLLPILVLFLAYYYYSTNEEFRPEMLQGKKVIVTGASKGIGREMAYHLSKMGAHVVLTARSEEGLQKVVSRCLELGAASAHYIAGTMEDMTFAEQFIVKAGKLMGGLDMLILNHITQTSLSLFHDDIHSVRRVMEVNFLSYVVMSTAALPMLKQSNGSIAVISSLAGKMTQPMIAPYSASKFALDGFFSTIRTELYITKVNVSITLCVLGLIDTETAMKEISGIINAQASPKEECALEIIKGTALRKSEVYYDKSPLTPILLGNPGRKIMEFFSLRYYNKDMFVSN

Compound: C[C@]12CC(=O)[C@H]3[C@@H](CCC4=CC(=O)CC[C@@]43C)[C@@H]1CC[C@@H]2C(=O)CO [11-dehydrocorticosterone]
- phagocytosis performance of macrophages [1]: two-fold
- conversion of inactive 11-dehydrocorticosterone (A) to active corticosterone (B) ([2]; mouse macrophages, over a 24 hour period): clearly shows conversion of (A) to (B)
- enhanced phagocytic effect in 11βHSD-1-/- Mφ [3]: abrogated
- phagocytosis of apoptotic PMN by BMD Mφ [3]: enhancement of phagocytosis

Compound: C=CC(C)(C)c1[nH]c2ccccc2c1C1=C(O)C(=O)C(c2c[nH]c3c(CC=C(C)C)cccc23)=C(O)C1=O [L-783,281]
- blood glucose levels [4]: significant lowering

Compound: CC1(C)[C@@H](OC(=O)CCC(=O)O)CC[C@]2(C)[C@H]3C(=O)C=C4[C@@H]5C[C@@](C)(C(=O)O)CC[C@]5(C)CC[C@@]4(C)[C@]3(C)CC[C@@H]12 [carbenoxolone]
- effect of inactive 11-dehydrocorticosterone on phagocytosis in the presence of the inhibitor ([1]; macrophages incubated with 11-dehydrocorticosterone plus carbenoxolone): completely abolishes
- effect on conversion of (A) to (B) by 11β-HSD1 ([2]; high concentrations of carbenoxolone): can be blocked

Compound: C[C@]12C[C@H](O)[C@H]3[C@@H](CCC4=CC(=O)CC[C@@]43C)[C@@H]1CC[C@@H]2C(=O)CO [corticosterone]
- phagocytosis performance of macrophages [1]: two-fold
- enhanced phagocytic effect in 11βHSD-1-/- Mφ [3]: no effect
- phagocytosis of apoptotic PMN by BMD Mφ [3]: enhancement of phagocytosis

Compound: IL-4: cytokine capable of inducing 11β-HSD 1 expression
- conversion of inert 11-DHC to active corticosterone (11β-reductase activity) [5]: dose-relatedly increased

From US20040067222A1, “Regulation of glucocorticoid concentration” (priority 2001, published 2004)
